{"source": "paper PMC8445441", "about": "“Elucidating the mechanism by which synthetic helper peptides sensitize Pseudomonas aeruginosa to multiple antibiotics” (PLoS Pathogens, 2021)", "key": {"[1]": {"tested_on": "P. aeruginosa AUMC-Pa-3", "test": "microbe, parasite or virus in culture", "procedure": "(§1) The MIC tests were performed in triplicate using broth microdilution in accordance with Clinical and Laboratory Standards Institute (CLSI) recommendations (http://iacld.ir/DL/public/CLSI-2018-M100-S28.pdf). Briefly, drugs were two-fold diluted in MHB and mixed with an equal volume of bacterial suspensions containing approximately 1 × 10^6 CFU/mL in 96-well microliter plate. After 18 h incubation at 37 °C, the MIC values were defined as the lowest concentrations of antibiotics with no visible growth of bacteria. […] Otherwise, 1/4 MIC of the peptide was used in the combination. […] If needed, membrane compounds PG, PE, PC, CL or LPS, or membrane stabilizers MgCl2 or CaCl2, or efflux pumps inhibitor PAβN were added to the broth medium to clarify the effect of other substances on the synergy between peptide and antibiotics. All the tests were performed in triplicate.\n(§2) The fractional inhibitory concentration (FIC) indices were calculated using the previously described formula FICI = FICa + FICb = MICac/MICa + MICbc/MICb. The FICI was interpreted according to EUCAST [65] as follows: synergistic, FICI≤0.5; additive, 0.5<FICI≤1; indifferent, 1<FICI<2; antagonistic, FICI ≥2. For the FICI calculations, twice the highest concentration tested was used in the cases where the MIC was not reached."}, "[2]": {"tested_on": "P. aeruginosa AUMC-Pa-4", "test": "microbe, parasite or virus in culture", "procedure": "as §1, §2"}, "[3]": {"tested_on": "P. aeruginosa AUMC-Pa-5", "test": "microbe, parasite or virus in culture", "details": "strain AUMC-Pa-5", "procedure": "as §1, §2"}, "[4]": {"tested_on": "P. aeruginosa AUMC-Pa-6", "test": "microbe, parasite or virus in culture", "procedure": "as §1, §2"}, "[5]": {"tested_on": "P. aeruginosa PAO1", "test": "microbe, parasite or virus in culture", "details": "PAO1", "procedure": "as §1, §2"}, "[6]": {"tested_on": "P. aeruginosa ATCC27853", "test": "microbe, parasite or virus in culture", "set-up": "MICa: MIC of the antibiotic / MICac: MIC of the antibiotic in the combination: unit not given beside the values", "procedure": "as §1, §2"}, "[7]": {"tested_on": "P. aeruginosa NR-31040", "test": "microbe, parasite or virus in culture", "set-up": "MICa: MIC of the antibiotic / MICac: MIC of the antibiotic in the combination: unit not given beside the values", "details": "strain NR-31040, unit not given", "procedure": "as §1, §2"}, "[8]": {"tested_on": "P. aeruginosa NR-31041", "test": "microbe, parasite or virus in culture", "set-up": "MICa: MIC of the antibiotic / MICac: MIC of the antibiotic in the combination: unit not given beside the values", "procedure": "as §1, §2"}, "[9]": {"tested_on": "P. aeruginosa PA14", "test": "microbe, parasite or virus in culture", "set-up": "MICa: MIC of the antibiotic / MICac: MIC of the antibiotic in the combination: unit not given beside the values", "procedure": "as §1, §2"}, "[10]": {"tested_on": "P. aeruginosa PAK", "test": "microbe, parasite or virus in culture", "set-up": "MICa: MIC of the antibiotic / MICac: MIC of the antibiotic in the combination: unit not given beside the values", "procedure": "as §1, §2"}, "[11]": {"tested_on": "P. aeruginosa HM-214", "details": "strain HM-214; antibiotic + D-11 (MICb/MICbc 128/4)", "procedure": "as §1, §2"}, "[12]": {"tested_on": "P. aeruginosa AUMC-Pa-1", "details": "strain AUMC-Pa-1; antibiotic + D-11 (MICb/MICbc 128/4)", "procedure": "as §1, §2"}, "[13]": {"tested_on": "P. aeruginosa AUMC-Pa-2", "details": "strain AUMC-Pa-2; antibiotic + D-11 (MICb/MICbc 64/4)", "procedure": "as §1, §2"}, "[14]": {"tested_on": "clinical P. aeruginosa isolates", "test": "microbe, parasite or virus in culture", "details": "antibiotic alone", "procedure": "The bacterial strains, primers and plasmids used in this study are listed in S5 Table. […] Bacteria were cultured in LB medium or cation-adjusted Muller-Hinton broth (CA-MHB) at 37 °C with agitation at 220 rpm. All the antibiotics and chemical compounds used in this study were purchased from Sigma-Aldrich.\nas §1"}, "[15]": {"details": "S3 Table, antibiotic + 4 μM D-11"}}, "note": "Several values for one entry are separate records, joined by “and”; a condition that tells them apart may be missing. Identical values can stand only once."}
{"compound": "CC1COc2c(N3CCN(C)CC3)c(F)cc3c(=O)c(C(=O)O)cn1c23", "note": "(stereo not drawn) [Ofloxacin]", "values": [{"measurement": "MIC", "setting": "[1]; Pseudomonas aeruginosa, AUMCPA3, 18 h, read-out: MICa: MIC of the antibiotic", "value": 1, "unit": "µM"}, {"measurement": "FICI", "setting": "[1]; strain AUMC-Pa-3, antibiotic + D-11 (MICb/MICbc 128/4)", "value": 0.281}, {"measurement": "MICac: MIC of the antibiotic in the combination", "setting": "[1]; strain AUMC-Pa-3, with D-11 at MICbc 4, unit not given", "value": 0.25}, {"measurement": "MIC", "setting": "[2]; Pseudomonas aeruginosa, AUMCPA4, 18 h, read-out: MICa: MIC of the antibiotic", "value": 1, "unit": "µM"}, {"measurement": "MICac: MIC of the antibiotic in the combination", "setting": "[2]; strain AUMC-Pa-4, with D-11 at MICbc 4, unit not given", "value": 0.25}, {"measurement": "FICI", "setting": "[3]; antibiotic + D-11 (MICb/MICbc 64/4)", "value": 2.063}, {"measurement": "MICa: MIC of the antibiotic", "setting": "[3]; antibiotic alone, unit not given", "value": 1}, {"measurement": "MICac: MIC of the antibiotic in the combination", "setting": "[3]; with D-11 at MICbc 4, unit not given", "value": 2}, {"measurement": "MIC", "setting": "[4]; Pseudomonas aeruginosa, AUMCPA6, 18 h, read-out: MICa: MIC of the antibiotic", "value": 0.5, "unit": "µM"}, {"measurement": "FICI", "setting": "[4]; strain AUMC-Pa-6, antibiotic + D-11 (MICb/MICbc 64/4)", "value": 1.063}, {"measurement": "MICac: MIC of the antibiotic in the combination", "setting": "[4]; strain AUMC-Pa-6, with D-11 at MICbc 4, unit not given", "value": "0.5/0.5"}, {"measurement": "MIC", "setting": "[5]; Pseudomonas aeruginosa, PAO1, 18 h, read-out: MICa: the MIC of antibiotics, S3 Table, antibiotic alone", "value": 1, "unit": "µM"}, {"measurement": "FICI", "setting": "[5]; S3 Table, antibiotic + 2 μM D-11", "value": 0.188}, {"measurement": "FICI", "setting": "[5]; [15]", "value": 0.156}, {"measurement": "MICac: the MIC for the antibiotic in the combination", "setting": "[5]; S3 Table, with 2 μM D-11", "value": 0.125, "unit": "µM"}, {"measurement": "MICac: the MIC for the antibiotic in the combination", "setting": "[5]; S3 Table, with 4 μM D-11", "value": 0.03125, "unit": "µM"}, {"measurement": "MIC", "setting": "[6]; Pseudomonas aeruginosa, ATCC27853, 18 h, read-out: MICa: MIC of the antibiotic", "value": 2, "unit": "µM"}, {"measurement": "FICI", "setting": "[6]; strain ATCC27853, antibiotic + D-11 (MICb/MICbc 32/4)", "value": 0.250}, {"measurement": "MICac: MIC of the antibiotic in the combination", "setting": "[6]; strain ATCC27853, with D-11 at MICbc 4, unit not given", "value": 0.25}, {"measurement": "MICa: MIC of the antibiotic", "setting": "[7]; antibiotic alone", "value": 2}, {"measurement": "MICac: MIC of the antibiotic in the combination", "setting": "[7]; with D-11 at MICbc 4", "value": 1}, {"measurement": "MIC", "setting": "[8]; Pseudomonas aeruginosa, NR31041, 18 h, read-out: MICa: MIC of the antibiotic", "value": 2, "unit": "µM"}, {"measurement": "FICI", "setting": "[8]; strain NR-31041, antibiotic + D-11 (MICb/MICbc 64/4)", "value": 0.313}, {"measurement": "MICac: MIC of the antibiotic in the combination", "setting": "[8]; strain NR-31041, with D-11 at MICbc 4, unit not given", "value": 0.5}, {"measurement": "MIC", "setting": "[9]; Pseudomonas aeruginosa, PA14, 18 h, read-out: MICa: MIC of the antibiotic", "value": 1, "unit": "µM"}, {"measurement": "MICac: MIC of the antibiotic in the combination", "setting": "[9]; strain PA14, with D-11 at MICbc 4, unit not given", "value": 0.5}, {"measurement": "MIC", "setting": "[10]; Pseudomonas aeruginosa, 18 h, read-out: MICa: MIC of the antibiotic", "value": 2, "unit": "µM"}, {"measurement": "FICI", "setting": "[10]; strain PAK, antibiotic + D-11 (MICb/MICbc 64/4)", "value": 0.313}, {"measurement": "MICac: MIC of the antibiotic in the combination", "setting": "[10]; strain PAK, with D-11 at MICbc 4, unit not given", "value": 0.5}, {"measurement": "FICI", "setting": "[11]", "value": 1.031}, {"measurement": "FICI", "setting": "[12]", "value": 0.094}, {"measurement": "FICI", "setting": "[13]", "value": 0.563}]}
{"compound": "Neomycin", "values": [{"measurement": "FICI", "setting": "[5]; [15]", "value": 2.125}, {"measurement": "MICac: the MIC for the antibiotic in the combination", "setting": "[5]; S3 Table, with 2 μM D-11", "value": "2/2 μM"}, {"measurement": "MICac: the MIC for the antibiotic in the combination", "setting": "[5]; S3 Table, with 4 μM D-11", "value": 4, "unit": "µM"}, {"measurement": "MICa: the MIC of antibiotics", "setting": "[5]; S3 Table, antibiotic alone", "value": "2/2 μM and 2 μM"}, {"measurement": "Antibiotic sensibility (MIC) of clinical P. aeruginosa isolate AUMC-Pa-1", "setting": "[14]; strain AUMC-Pa-1", "value": 1, "unit": "µM"}, {"measurement": "Antibiotic sensibility (MIC) of clinical P. aeruginosa isolate AUMC-Pa-2", "setting": "[14]; strain AUMC-Pa-2", "value": 0.5, "unit": "µM"}, {"measurement": "Antibiotic sensibility (MIC) of clinical P. aeruginosa isolate AUMC-Pa-3", "setting": "[14]; strain AUMC-Pa-3", "value": 0.0625, "unit": "µM"}, {"measurement": "Antibiotic sensibility (MIC) of clinical P. aeruginosa isolate AUMC-Pa-4", "setting": "[14]; strain AUMC-Pa-4", "value": 0.5, "unit": "µM"}, {"measurement": "Antibiotic sensibility (MIC) of clinical P. aeruginosa isolate AUMC-Pa-5", "setting": "[14]; strain AUMC-Pa-5", "value": 0.5, "unit": "µM"}, {"measurement": "Antibiotic sensibility (MIC) of clinical P. aeruginosa isolate AUMC-Pa-6", "setting": "[14]; strain AUMC-Pa-6", "value": 2, "unit": "µM"}, {"measurement": "Antibiotic sensibility (MIC) of clinical P. aeruginosa isolate HM-214", "setting": "[14]; strain HM-214", "value": 2, "unit": "µM"}, {"measurement": "Antibiotic sensibility (MIC) of clinical P. aeruginosa isolate NR-31040", "setting": "[14]; strain NR-31040", "value": 8, "unit": "µM"}, {"measurement": "Antibiotic sensibility (MIC) of clinical P. aeruginosa isolate NR-31041", "setting": "[14]; strain NR-31041", "value": 4, "unit": "µM"}]}
